Data: ChEMBL document CHEMBL1201862, “PubChem BioAssay data set” (2004)
The source made the active and inactive calls.

Assays:
[1] = molecular target: T1, Low molecular weight phosphotyrosine protein phosphatase (Homo sapiens, UniProt P24666); test: LMPTP phosphatase inhibitors, dose response, biochemical, OMFP substrate, fluorescence intensity, set 2 (AID 743307); assay type: functional
T1 sequence (P24666 whole entry): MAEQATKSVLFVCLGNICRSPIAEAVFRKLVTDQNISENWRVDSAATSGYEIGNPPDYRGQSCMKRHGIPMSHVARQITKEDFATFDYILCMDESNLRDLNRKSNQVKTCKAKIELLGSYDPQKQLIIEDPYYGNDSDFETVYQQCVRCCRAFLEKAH

[2] = molecular target: T1, Low molecular weight phosphotyrosine protein phosphatase; test: LMPTP phosphatase inhibitors, colorimetric pNPP readout, dose response, orthogonal assay, biochemical, absorbance, pNPP substrate, LMPTP-A isoform, set 2 (AID 743308); assay type: functional
[3] = CEM21 lymphoblast cell cytotoxicity, dose response, cytotoxicity control for viral fusion inhibitor project, CellTiter-Glo luminescence, cherry-picked (AID 652042); assay type: functional, cell-based;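 note: potency for signal decrease meaning cytotoxicity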
Nonstructural protein 1 = Nonstructural protein 1 (Influenza A virus, UniProt Q194T2); assay type: functional, Influenza A virus (A/California/07/2009(H1N1))
[4] = molecular target: T2, Mannose-6-phosphate isomerase (Homo sapiens, UniProt P34949); test: human PMI inhibitors, high substrate, primary screen, biochemical, fluorescence intensity, high mannose 6-phosphate (AID 1220)
T2 sequence (P34949 whole entry): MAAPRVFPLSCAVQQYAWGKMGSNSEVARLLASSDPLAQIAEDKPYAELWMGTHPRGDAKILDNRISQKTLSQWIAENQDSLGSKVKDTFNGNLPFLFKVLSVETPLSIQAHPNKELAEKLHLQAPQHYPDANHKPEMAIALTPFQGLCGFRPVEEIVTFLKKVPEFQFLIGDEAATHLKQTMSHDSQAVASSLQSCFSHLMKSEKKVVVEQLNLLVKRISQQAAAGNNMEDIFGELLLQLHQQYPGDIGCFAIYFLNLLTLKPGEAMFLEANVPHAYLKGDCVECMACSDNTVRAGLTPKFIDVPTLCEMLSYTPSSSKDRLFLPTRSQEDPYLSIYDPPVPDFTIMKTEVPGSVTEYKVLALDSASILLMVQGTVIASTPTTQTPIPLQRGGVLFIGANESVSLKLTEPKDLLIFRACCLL

cells [5] = assay type: functional, cell-based
[6] = growth suppression of beta-catenin-knockout colon cells, dose response, cell-based, HCT116, human colon tumor (AID 1045); assay type: functional;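 note: HCT116 colon tumor cells with beta catenin knocked out; cells exposed to compound for 60 hours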
[7] = growth suppression of PTEN-null colon cells, dose response, cell-based, HCT116 PTEN knockout (AID 1047); assay type: functional;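 note: HCT116 colon tumor cells with PTEN knocked out; cells exposed to compound for 60 hours before readout; potency for loss of cell viability measured by luminescence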
[8] = inhibitors of clade B AD8 Env fusion, dose response, cell-based, cherry-pick (AID 652062); assay type: functional;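 note: luciferase signal from cell-cell fusion driven by HIV-1 clade B AD8 Env; potency is for inhibitors of fusion seen as a drop in luminescence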
cells [9] = assay type: functional, cell-based; remark: listed apart in the source
INS1 = test: beta cell apoptosis inhibitors, cytokine rescue, dose response, luminescence, retest (AID 449756); assay type: functional, cell-based; conditions: Rattus norvegicus;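 note: cell death triggered by IL-1 beta plus TNF-alpha plus IFN-gamma mixture; protective hits raise ATP signal compared with cytokine alone wells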
[10] = molecular target: Nucleotide-binding oligomerization domain-containing protein 2 (Homo sapiens, UniProt Q9HC29); test: NOD2 signaling inhibitors, cell-based, luminescence, uHTS, HEK293 (AID 1566); assay type: functional
[11] = molecular target: T3, Replicative DNA helicase DnaB (Mycobacterium tuberculosis, UniProt P9WMR3); test: DnaB intein splicing inhibitors, dose response, biochemical, cell-free fluorescence (AID 449749); assay type: functional
T3 sequence (P9WMR3 whole entry): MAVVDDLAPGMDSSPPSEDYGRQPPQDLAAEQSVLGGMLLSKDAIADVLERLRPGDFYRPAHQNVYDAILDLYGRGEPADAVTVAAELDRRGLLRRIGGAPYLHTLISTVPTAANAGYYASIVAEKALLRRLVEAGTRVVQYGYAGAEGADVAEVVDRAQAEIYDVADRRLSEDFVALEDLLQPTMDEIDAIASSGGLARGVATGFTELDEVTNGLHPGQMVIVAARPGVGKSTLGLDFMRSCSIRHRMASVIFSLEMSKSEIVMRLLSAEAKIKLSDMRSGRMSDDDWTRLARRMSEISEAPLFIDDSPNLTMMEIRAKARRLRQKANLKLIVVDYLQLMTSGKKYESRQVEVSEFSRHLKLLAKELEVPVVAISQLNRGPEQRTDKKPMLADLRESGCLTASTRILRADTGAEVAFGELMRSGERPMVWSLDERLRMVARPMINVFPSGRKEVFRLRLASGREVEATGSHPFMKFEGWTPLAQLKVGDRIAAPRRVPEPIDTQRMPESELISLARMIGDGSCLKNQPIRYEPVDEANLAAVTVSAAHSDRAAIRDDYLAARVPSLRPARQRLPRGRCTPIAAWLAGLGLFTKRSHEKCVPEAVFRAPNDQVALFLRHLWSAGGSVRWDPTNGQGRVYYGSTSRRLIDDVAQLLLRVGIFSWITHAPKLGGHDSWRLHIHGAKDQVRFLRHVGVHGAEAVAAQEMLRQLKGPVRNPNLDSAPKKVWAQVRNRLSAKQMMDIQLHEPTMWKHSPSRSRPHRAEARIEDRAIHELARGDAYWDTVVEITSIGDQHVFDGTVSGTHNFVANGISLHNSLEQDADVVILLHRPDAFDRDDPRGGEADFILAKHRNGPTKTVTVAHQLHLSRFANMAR

[12] = Vero cell cytotoxicity, dose response, cytotoxicity control for Vif-APOBEC3G degradation inhibitor project, Vero cells (AID 1117358); assay type: functional; conditions: Human immunodeficiency virus 1, Vero
HEK293 [13] = test: cells; assay type: functional, cell-based; conditions: Homo sapiens
HEK293 [14] = test: NOD1 signaling inhibitors, primary screen, cell-based, luminescence, uHTS (AID 1578); assay type: functional; conditions: Homo sapiens
HEK293 [15] = test: NOD2 signaling inhibitors in MDP-stimulated cells, cell-based, uHTS, luminescence (AID 2001); assay type: functional; conditions: Homo sapiens
Protein RecA = molecular target: T4, Protein RecA (Mycobacterium tuberculosis, UniProt P9WHJ3); test: Fluorescence Cell-Free Homogeneous Dose Retest to Identify Inhibitors of RecA-Intein Splicing Activity. [Related pubchem assays (depositor defined):AID2097, AID2223, AID489010, AID492950]; assay type: functional
T4 sequence (P9WHJ3 whole entry): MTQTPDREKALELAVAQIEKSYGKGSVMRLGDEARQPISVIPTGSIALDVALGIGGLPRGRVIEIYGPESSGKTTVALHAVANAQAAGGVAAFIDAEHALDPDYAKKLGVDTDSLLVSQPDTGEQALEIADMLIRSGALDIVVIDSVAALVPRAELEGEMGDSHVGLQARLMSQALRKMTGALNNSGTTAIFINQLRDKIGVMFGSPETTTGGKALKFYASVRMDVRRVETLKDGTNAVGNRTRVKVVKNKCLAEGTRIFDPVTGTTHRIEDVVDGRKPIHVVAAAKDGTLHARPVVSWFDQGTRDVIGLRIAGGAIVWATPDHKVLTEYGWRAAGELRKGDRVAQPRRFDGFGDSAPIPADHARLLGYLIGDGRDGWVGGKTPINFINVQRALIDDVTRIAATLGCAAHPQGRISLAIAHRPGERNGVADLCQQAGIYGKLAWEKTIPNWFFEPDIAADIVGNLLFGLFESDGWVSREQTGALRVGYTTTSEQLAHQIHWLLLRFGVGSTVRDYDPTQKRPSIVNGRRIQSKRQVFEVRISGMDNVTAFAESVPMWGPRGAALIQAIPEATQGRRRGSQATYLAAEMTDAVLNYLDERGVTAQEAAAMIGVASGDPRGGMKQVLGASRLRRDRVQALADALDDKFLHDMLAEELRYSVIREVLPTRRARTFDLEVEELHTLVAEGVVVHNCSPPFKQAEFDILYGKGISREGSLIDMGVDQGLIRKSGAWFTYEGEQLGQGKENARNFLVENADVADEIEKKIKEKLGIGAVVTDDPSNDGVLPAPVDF

HEK293 [16] = test: cells; assay type: functional, cell-based; conditions: Homo sapiens; remark: listed apart in the source
[17] = Intein inhibitors as potential Tuberculosis drugs, a cytotoxicity screen. [Related pubchem assays (depositor defined):AID2221, AID2223, AID434968, AID435010, AID449749, AID449750, AID489010]; assay type: functional
HEK293 [18] = test: cells; assay type: functional, cell-based; conditions: Homo sapiens; remark: listed apart in the source
NADPH oxidase 1 = NADPH oxidase 1 (Homo sapiens, UniProt Q9Y5S8); test: Late-stage luminescence-based cell-based dose response assay to identify inhibitors of NADPH oxidase 1 (NOX1): Synthesized analogs 2.; assay type: functional
[19] = molecular target: Solute carrier family 12 member 2/member 5 (Homo sapiens, UniProt P55011+Q9H2X9); test: KCC2 and NKCC1 inhibition by rubidium flux, cell-based, NKCC1 counter-screen (AID 1734); assay type: functional, HEK293
[20] = molecular target: T5, Dual specificity protein phosphatase 6 (Rattus norvegicus, UniProt Q64346); test: MKP-3 phosphatase inhibitors, primary screen, biochemical, rat enzyme, in vitro (AID 425)
T5 sequence (Q64346 whole entry): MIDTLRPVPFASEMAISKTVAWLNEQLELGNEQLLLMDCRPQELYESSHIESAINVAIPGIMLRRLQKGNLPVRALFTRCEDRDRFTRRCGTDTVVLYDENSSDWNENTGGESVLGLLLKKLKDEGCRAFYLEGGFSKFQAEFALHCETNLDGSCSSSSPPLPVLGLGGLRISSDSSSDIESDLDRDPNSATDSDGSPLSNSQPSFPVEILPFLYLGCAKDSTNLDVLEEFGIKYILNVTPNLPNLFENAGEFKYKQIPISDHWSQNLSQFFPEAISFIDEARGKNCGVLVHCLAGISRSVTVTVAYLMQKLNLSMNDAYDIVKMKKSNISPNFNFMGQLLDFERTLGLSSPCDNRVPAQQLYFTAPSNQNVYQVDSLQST

Bcl-2-related protein A1 [21] = molecular target: T6, Bcl-2-related protein A1 (Mus musculus, UniProt Q07440); test: Bfl-1 inhibitors blocking BH3 peptide binding, confirmation, biochemical, TR-FRET, mouse Bfl-1 (AID 621);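 note: TR-FRET binding of GST-Bfl-1 to FITC-labelled Bid peptide via terbium antibody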
T6 sequence (Q07440 whole entry): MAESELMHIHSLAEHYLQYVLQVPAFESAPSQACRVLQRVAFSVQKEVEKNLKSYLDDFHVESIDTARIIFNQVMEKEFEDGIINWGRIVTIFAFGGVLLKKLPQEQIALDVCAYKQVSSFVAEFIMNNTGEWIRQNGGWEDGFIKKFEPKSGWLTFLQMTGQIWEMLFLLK

Bcl-2-related protein A1 [22] = molecular target: T6, Bcl-2-related protein A1; test: Bfl-1 inhibitors, primary screen, biochemical, fluorescence polarization, FITC-Bid, mouse (AID 432)
Danio rerio = test: In Vivo Angiogenesis Dose-Response Confirmation. [Related pubchem assays: 732 (Assay preceding this confirmatory assay.)]; assay type: functional, organism-based
[23] = molecular target: T7, High affinity choline transporter 1 (Homo sapiens, UniProt Q9GZV3); test: CHT inhibitors, dose response, cell-based, 5-point CRC, membrane potential dye (AID 504840); assay type: functional
T7 sequence (Q9GZV3 whole entry): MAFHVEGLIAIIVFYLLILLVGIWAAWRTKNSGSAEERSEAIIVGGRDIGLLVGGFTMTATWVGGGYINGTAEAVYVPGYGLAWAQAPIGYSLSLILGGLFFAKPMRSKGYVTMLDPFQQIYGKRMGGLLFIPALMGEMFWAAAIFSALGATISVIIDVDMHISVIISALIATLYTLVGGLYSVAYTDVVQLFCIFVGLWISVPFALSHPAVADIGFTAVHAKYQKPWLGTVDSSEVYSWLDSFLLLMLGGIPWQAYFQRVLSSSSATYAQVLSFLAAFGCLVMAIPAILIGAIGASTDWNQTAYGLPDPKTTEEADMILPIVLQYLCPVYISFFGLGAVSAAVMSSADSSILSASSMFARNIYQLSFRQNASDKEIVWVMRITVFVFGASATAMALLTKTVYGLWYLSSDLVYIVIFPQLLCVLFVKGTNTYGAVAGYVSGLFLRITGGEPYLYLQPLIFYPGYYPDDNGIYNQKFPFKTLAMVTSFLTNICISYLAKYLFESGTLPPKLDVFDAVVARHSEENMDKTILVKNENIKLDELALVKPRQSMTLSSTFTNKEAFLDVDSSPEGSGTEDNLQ

Nonstructural protein 1, sequence (Q194T2 whole entry): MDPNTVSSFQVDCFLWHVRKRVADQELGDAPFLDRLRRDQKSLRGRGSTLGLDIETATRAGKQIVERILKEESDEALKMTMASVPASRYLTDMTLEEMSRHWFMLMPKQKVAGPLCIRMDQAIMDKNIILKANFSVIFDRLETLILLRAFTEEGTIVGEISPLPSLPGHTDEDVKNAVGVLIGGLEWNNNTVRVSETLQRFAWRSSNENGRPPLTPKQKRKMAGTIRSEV
NADPH oxidase 1, sequence (Q9Y5S8 whole entry): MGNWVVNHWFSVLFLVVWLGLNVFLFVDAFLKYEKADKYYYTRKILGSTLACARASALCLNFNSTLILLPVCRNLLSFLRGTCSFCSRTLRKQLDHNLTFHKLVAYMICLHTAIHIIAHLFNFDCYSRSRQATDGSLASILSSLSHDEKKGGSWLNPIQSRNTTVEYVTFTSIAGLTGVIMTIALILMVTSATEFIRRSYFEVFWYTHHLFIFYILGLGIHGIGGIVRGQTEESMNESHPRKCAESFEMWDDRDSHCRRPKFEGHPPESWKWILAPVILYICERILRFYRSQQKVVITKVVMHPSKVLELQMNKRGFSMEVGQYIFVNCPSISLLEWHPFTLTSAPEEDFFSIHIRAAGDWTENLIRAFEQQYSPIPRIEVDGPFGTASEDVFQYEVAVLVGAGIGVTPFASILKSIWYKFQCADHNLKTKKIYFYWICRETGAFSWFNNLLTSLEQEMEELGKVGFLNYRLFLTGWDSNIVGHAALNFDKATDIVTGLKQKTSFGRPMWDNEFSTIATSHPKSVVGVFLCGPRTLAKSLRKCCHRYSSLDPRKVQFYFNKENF
Nucleotide-binding oligomerization domain-containing protein 2, sequence (Q9HC29 whole entry, the tested form may be a part): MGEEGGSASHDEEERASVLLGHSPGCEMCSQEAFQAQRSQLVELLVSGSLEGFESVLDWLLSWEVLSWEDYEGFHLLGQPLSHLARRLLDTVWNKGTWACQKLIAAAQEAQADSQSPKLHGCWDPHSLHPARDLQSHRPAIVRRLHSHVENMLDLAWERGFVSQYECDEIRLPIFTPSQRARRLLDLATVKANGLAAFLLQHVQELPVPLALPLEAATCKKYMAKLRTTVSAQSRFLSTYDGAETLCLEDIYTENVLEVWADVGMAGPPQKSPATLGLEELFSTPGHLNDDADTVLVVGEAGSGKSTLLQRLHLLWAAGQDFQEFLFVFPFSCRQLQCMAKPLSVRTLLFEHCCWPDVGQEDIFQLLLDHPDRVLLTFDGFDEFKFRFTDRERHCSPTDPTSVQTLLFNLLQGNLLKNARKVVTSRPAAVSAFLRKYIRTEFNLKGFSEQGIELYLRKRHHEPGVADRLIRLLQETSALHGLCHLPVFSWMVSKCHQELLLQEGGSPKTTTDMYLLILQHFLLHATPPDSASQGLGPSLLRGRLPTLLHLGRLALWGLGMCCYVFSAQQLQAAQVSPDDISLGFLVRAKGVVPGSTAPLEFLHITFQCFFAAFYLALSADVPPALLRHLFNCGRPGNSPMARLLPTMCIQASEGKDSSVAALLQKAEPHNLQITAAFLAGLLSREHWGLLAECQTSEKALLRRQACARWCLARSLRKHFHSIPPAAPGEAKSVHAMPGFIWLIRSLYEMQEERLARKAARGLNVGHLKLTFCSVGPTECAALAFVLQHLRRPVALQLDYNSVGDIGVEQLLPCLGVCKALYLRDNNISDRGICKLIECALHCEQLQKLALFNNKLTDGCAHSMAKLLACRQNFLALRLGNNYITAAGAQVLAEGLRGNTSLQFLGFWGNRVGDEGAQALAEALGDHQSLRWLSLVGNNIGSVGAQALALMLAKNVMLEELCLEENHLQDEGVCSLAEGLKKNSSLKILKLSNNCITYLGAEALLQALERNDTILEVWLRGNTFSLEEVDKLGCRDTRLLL

CC1CCN(c2nc(-c3ccccc3)nc3ccccc23)CC1
IC50 [1]: > 80 µM (inactive)
IC50 [2]: > 80 µM (inactive)

COc1ccccc1N1CCN(Cc2ccc(O)c3ncccc23)CC1
AC50 [3]: 3.39 µM (active)
IC50 (Nonstructural protein 1): 5.46 µM (active)
IC50 [4]: 19.2 µM (active)
EC50 (cells [5]): 12.1 µM (active)
EC50 [6]: 1.95 µM (active)
EC50 [7]: 2.25 µM (active)
AC50 [8]: 29.6 µM (active)
EC50 (cells [9]): > 350 µM (not active)
AC50 (INS1): 2.27 µM (active)

CN(C1=C(NC(=O)c2ccc(Cl)cc2)C(=O)c2ccccc2C1=O)c1ccccc1
EC50 [10]: 11.4 µM (active)
IC50 (Nonstructural protein 1): 7.27 µM (active)
AC50 [11]: 3.94 µM (active)
CC50 [12]: > 40 µM (active)
IC50 (HEK293 [13]): 5.15 µM (active)
EC50 [6]: 8.39 µM (active)
EC50 [7]: 7.51 µM (active)
EC50 (HEK293 [14]): > 20 µM (inactive)
IC50 (HEK293 [15]): 8.31 µM (active)
EC50 (Protein RecA): 1.66 µM (active)
AC50 (INS1): 3.01 µM (active)
IC50 (HEK293 [16]): > 20 µM (inactive)
CC50 [17]: 20.1 µM (active)
IC50 (HEK293 [18]): 9.67 µM (active)

O=C(Nc1c(F)cccc1F)N1c2ccccc2Sc2ccccc21
IC50 (NADPH oxidase 1): 0.636 µM (active)

O=S(=O)(NCc1ccccc1)c1ccc(Cl)c(S(=O)(=O)NCc2ccccc2)c1
IC50 [19]: 9.1 µM (active)

N#Cc1c(N)sc(=S)c2c1CCN(Cc1ccccc1)C2
IC50 [20]: 10.8 µM (active)
IC50 (Bcl-2-related protein A1 [21]): > 100 µM (not active)
IC50 (Bcl-2-related protein A1 [22]): > 100 µM (not active)

C[N+](C)(C)CCOC(=O)CBr [E1001]
IC50 (Danio rerio): 31.6 µM (not active)
IC50 [23]: 14.1 µM (active)
